From US10753938B2, “Beta-catenin inhibitors in cancer immunotherapy” (The University of Chicago, priority 2015, dated 2020)

B1: recombinant murine CCL4: CCL4 (R&D) added as migration stimulus at 500 ng/ml (protein)
chain: APMGSDPPTSCCFSYTSRQLHRSFVMDYYETSSLCSKPAVVFLTKRGRQICANPSEPWVTEYMSDLELN

Legend:
[1] = test system: skin-derived CD11c^+CD103^+DCs; assay: Transwell migration assay; format: cell-based, mouse
Protocol: Dendritic cell populations were isolated from lymph nodes and skin of naïve 6 week-old C57BL/6 mice. For this purpose, skin tissue was digested in a similar way as tumor tissue and\ cells from skin and lymph node were stained using the previously described protocol for cell sorting. Subsequently, living, CD45^+, CD11c^+, CD8α^− or CD8α^+ cells were isolated from the lymph node sample as well as living, CD45^+, CD11c^+, CD103^+ from skin samples. Migration assays were performed as described previously with minor adaptations using 5×10^5 cells/well and pre-treatment of DC with pertussis toxin (Sigma) at a final concentration of 20 ng/ml for 1.5 h in indicated (Spranger et al. Journal of immunology 185, 738-747 (2010); herein incorporated by reference in its entirety). As a migration stimulus, CCL4 (R&D) was added to RPMI complete medium at 500 ng/ml or 48 h conditioned media from BP or BPC cell lines were used. At the endpoint, cells from the lower compartment as well as the trans-well were harvested and counted using a standard Neubauer counting chamber. Percentage of migrated cells was calculated as followed: count lower-well/(count upper-well+ count lower-well)*100; with the sum of trans-well and lower well-being >90% of the input cell count.

[2] = test system: β-catenin-negative tumors (BP-SIY); assay: Migration of pertussis toxin-pretreated effector 2C T cells into tumor; format: in vivo, mouse; settings: T cells treated 12 h with PTX before injection
Protocol: For adoptive T cell transfer experiments, tumor development was induced and transfer of 1×10^6 or 10×10^6 T cells was performed when tumors reached 600-1000 mm^3 (approx. 5-6 weeks after induction). Transferred T cells were isolated from gender-matched 2C donor mice using the Miltenyi CD8^+ enrichment Kit II for untouched CD8^+ T cell isolation. After isolation, cells were activated for three days through plate-bound CD3 (0.2 μg/ml; 145-2C11 clone; Biolegend) and CD28 (0.5 μg/ml; 37.51 clone; BD) antibodies. Following activation, T cells were stained with 1 μm CFSE-solution (eBioscience) for 8 min at 37° C. before intravenous injection. Tumor tissue, tumor-draining LNs, and spleen were harvested 3 days following adoptive transfer of T cells and used for flow cytometric analysis. […] For tumor tissues, the entirety of each sample was acquired and total number of CD3^+CD8^+ T cells and transferred 2C cells was assessed. The percentage 2C cells was calculated as [(100/CD3^+/CD8^+ T cells)*2C] and also the number of 2C cells per gram tumor. […]
To assess if lack of T cell infiltration was due to a defect in effector T cell recruitment, an adoptive T cell transfer approach was used, transferring in vitro-activated effector 2C T cells into tumor bearing BP-SIY and BPC-SIY mice. As a first assessment, only the capacity of the effector T cells to migrate into the tumor within 72 h was analyzed. […]

Row | Molecule | DC migration in response to CCL4 ([1]; pretreatment of DC with pertussis toxin) | migration of effector 2C T cells into tumor [2] | DC migration ([1]; CCL4 as migration stimulus)
1 | pertussis toxin | eliminated | completely block the migration | –
2 | B1 | – | – | migrated in response to CCL4
